Consider 7 compounds from US20080057010A1, “METHOD FOR SKIN CARE” (NULIV SCIENCE LTD., priority 2006, published 2008).

What all share (format): cell-based, human
One experiment has as its system HaCaT cells. Description: Proline uptake assay in HaCaT cells. The following applies: 0.1 μM; for Uptake rate (proline): 48 h treatment; for Percentage (%) of control proline uptake: control = 100.00. The method, then: The proline uptake assay was carried out as described (Biochim Biophys Acta. 1104:283-292, 1992). Briefly, HaCaT cells were seeded into a 24-well plate at a density of 3×10^4 cells/well and cultured for 24 h. The cells were then treated in the absence (solvent control) or presence of various concentrations of astragalosides or crude extracts from Astragalus membranaceus for another 48 h. The treated cells were then washed once with PBS and incubated in amino acid free medium (AAFM) for another 30 min. The treated cells were them replaced with fresh AAFM containing 50 μg/ml of ascorbate and total of 0.5 mM of L-proline containing 1 μCi [^3H] Proline (American Radiolabelled Chemicals Inc, ARC, St. Louis, Mo., USA). At designated time interval, the cells were washed with AAFM containing cold proline and then lysed in 200 μL of 2% SDS. Cell lysates were centrifuged at 15000 g for 15 min. Intracellular proline uptaken by the cells was determined by transferring 10 μL of the cell lysate to filter-bottomed UniFilter plates (Perkim-Elmer) and counted. Protein concentration of the samples were measured using the BCA protein assay kit as described above. Proline accumulated in the cells was calculated and normalized to protein concentration and uptake rate was expressed as nmole of L-proline per minute per milligram of cell protein ([…]).

The test system of the next experiment is HA synthase 2 (HAS2). Description: Quantitative analysis of HA synthase 2 (HAS2) transcripts in HaCaT cells (qRT-PCR). To be noted: 0.1 μM, qRT-PCR normalized to GAPDH, relative to 0 = 1.00. How it is done: Relative levels of HAS2 expression in HaCaT cells were determined by real-time quantitative reverse transcriptase polymerase chain reaction (qRT-PCR). Total RNAs were isolated from the cultured human cells using TRIzol reagent (Invitrogen, Irvine, Calif., USA). 1 μg of RNA was reverse transcribed, at 37° C. for 60 min in a 20 μl transcription mixture containing dNTP (0.5 mM), oligo-dT (0.1 μg), RNasin (10 units), 1×PCR buffer (20 mM Tris-HCl, pH 8.3; 2.5 mM MgCl2; 50 mM KCl), and 100 units of Moloney murine leukemia virus reverse transcriptase (Invitrogen). The cDNA product was phenol extracted, ethanol precipitated, and resuspended in 20 μl TE (20 mM Tris-Cl, pH 8.0 and 1 mM EDTA). qRT-PCR was performed using the Applied Biosystem 7300 system and pre-developed Taqman Gene Expression Assays (Applied Biosystems, Foster City, Calif., USA). The reaction mixtures (20-μl total volume) contained 2 μl of serially diluted cDNA, 10 μl of Taqman Universal PCR Master Mix (Applied Biosystems), and 1 μl of either human HAS-2 gene (assay ID Hs 00193435_ml, Applied Biosystems), or GAPDH primer mix (assay ID Hs99999905_ml, Applied Biosystems). The reactions were amplified as follows: 50° C. for 2 min and 95° C. for 10 min, followed by 40 cycles of 95° C. for 1 min and 65° C. for 1 min. Two independent triplicate experiments were performed for the selected genes. Relative quantitation was performed using the 7300 software (Applied Biosystems, Foster City, Calif., USA). Expression of HAS-2 was normalized to GAPDH expression in each sample.
For orientation: Real-time PCR tracks product formation cycle by cycle.

In the next experiment the test system is MMP-1. Description: Quantitative analysis of MMP-1 transcripts in HDF cells (qRT-PCR). To be noted: 0.1 μM, MMP-1 mRNA relative to 0 = 1.00. How it is done:
Relative levels of MMP-1 expression in HDF cells were determined by qRT-PCR. Preparation of total RNA and cDNA were carried out as described in previous sections. qRT-PCR was performed using the Applied Biosystem 7300 system and pre-developed Taqman Gene Expression Assays (Applied Biosystems, Foster City, Calif., USA). The reaction was performed as described in previous sections except that primer mix for human MMP-1 (assay ID HS00233958_m1, Applied Biosystems) and GAPDH (assay ID Hs99999905_m1, Applied Biosystems) were used.
(§1) Results shown in Tables 6A and 6B represent the quantitated data from zymography analysis of MMP-2 protein in HaCaT cells and qRT-PCR for MMP-1 in HDF cells. The concentrations used were 0, 0.01. 0.1, 1 μM (if not indicated otherwise) for pure compounds; and were 0, 1, 10, 40 μg/mL for crude extract (if not indicated otherwise). The cells were treated with the indicated compounds for 24 h before harvested for analysis of Pro-MMP-2 or activated MMP-2 in whole cell extract. Fifty micrograms of the cell extract samples were used for electrophoresis.

The next experiment has as its system MMP-2. Description: Zymography of MMP-2 in HaCaT cells. To be noted: relative to 0 = 1.00. How it is done:
The proteolytic activities of MMPs from HaCaT and HDF cells were measured essentially as described elsewhere (Circ Res, 1999; 85:906-911). The cells were seeded for 24 h and then treated with various concentrations of astragalosides for another 48 h. The conditioned culture medium was then centrifuged, 2-fold concentrated, and saved for assay of collagens and MMPs expressed into the culture medium. The cells were then lysed in lysis buffer (1% Triton, 50 mM Tris-Cl, pH 7.4, 180 mM NaCl, 1 mM EDTA). Protein concentration of the samples was measured using the bicinchoninic acid (BCA) protein assay kit as described. Samples of concentrated conditioned medium and cell lysates were mixed with non-reducing electrophoresis loading buffer and subjected to electrophoresis under non-reducing conditions, which was carried out on a 10% SDS-PAGE co-polymerized with 2 mg/mL gelatin or casein (Sigma, St. Louis, Mo. USA). For zymographic analysis of pro-MMP-2 and activated MMP-2, the total 20 μg of culture medium were used for electrophoresis. Following electrophoresis, renaturation of the proteins was achieved by incubating the gels in 25 g/L Triton X-100 at room temperature for 2×10 min. Subsequently the gels were incubated in 50 mM Tris-HCl, pH 7.5 containing 0.2 M NaCl, 0.02% Brij35 and 10 mM CaCl2 at 37° C. for 18 h. After staining the gels with Coomassie Brilliant Blue R-250 and destaining, zones of proteolytic activities became visible as transparent bands in the stained gel. In order to obtain higher sensitivity, the gels were further destained in a solution of 1% Triton x-100 (1 to 2 h). This procedure increased the signal-to-noise ratio, allowing the visualization of faint gelatinase bands at 92, 125 and greater than 200 kDa. Zymograms were read using a Molecular Dynamics (Sunnyvale, Calif., USA) computing laser densitometer with Image Quant software.
as §1

With `CC(C)(O)[C@@H]1CC[C@](C)([C@H]2[C@@H](O)C[C@@]3(C)[C@@H]4C[C@H](O[C@@H]5O[C@H](CO)[C@@H](O)[C@H](O)[C@H]5O)[C@H]5C(C)(C)[C@@H](O[C@@H]6OC[C@@H](O)[C@H](O)[C@H]6O)CC[C@@]56C[C@@]46CC[C@]23C)O1` [AS4, astragaloside IV], in the experiment with HaCaT cells, the “Uptake rate (proline)” value came out at 0.7628 ± 0.1015 pmol/mg/min and the “Percentage (%) of control proline uptake” value is given as 110.50%. For the same compound, in the experiment with HA synthase 2 (HAS2), the HAS-2 in cell came out at 1.41.
Compound `CC(=O)O[C@H]1[C@H](O[C@H]2CC[C@]34C[C@]35CC[C@]3(C)[C@@H]([C@@]6(C)CC[C@@H](C(C)(C)O)O6)[C@@H](O)C[C@@]3(C)[C@@H]5C[C@H](O[C@@H]3O[C@H](CO)[C@@H](O)[C@H](O)[C@H]3O)[C@H]4C2(C)C)OC[C@@H](OC(C)=O)[C@@H]1O` [isoAS1, isoastragaloside I] returned an HAS-2 in cell in the experiment with HA synthase 2 (HAS2) of 1.12. Further, in the experiment on MMP-1, the “MMP-1 Q-PCR” value was determined as 0.6.
Consider astragaloside I [AS1], for which the “Uptake rate (proline)” value with HaCaT cells came out at 0.8627 ± 0.0741 pmol/mg/min. Moreover, the “Percentage (%) of control proline uptake” value in the experiment with HaCaT cells came out at 124.97%. For the same compound, the ProMMP-2/MMP2 in medium in the experiment with MMP-2 (0.01 μM) is on record as 0.57; with MMP-2 (0.1 μM) it was 0.57; with MMP-2 (1 μM), 0.86. Besides, in the experiment on MMP-1, the “MMP-1 Q-PCR” value came to 0.75.
In turn, `CC(=O)O[C@@H]1[C@@H](O)[C@H](O[C@H]2CC[C@]34C[C@]35CC[C@]3(C)[C@@H]([C@@]6(C)CC[C@@H](C(C)(C)O)O6)[C@@H](O)C[C@@]3(C)[C@@H]5C[C@H](O[C@@H]3O[C@H](CO)[C@@H](O)[C@H](O)[C@H]3O)[C@H]4C2(C)C)OC[C@H]1O` [isoAS2, isoastragaloside II] yielded an HAS-2 in cell in the experiment on HA synthase 2 (HAS2) of 1.28. Further, the “MMP-1 Q-PCR” value with MMP-1 is listed as 0.71.
On to `CC(=O)O[C@H]1[C@H](O[C@H]2CC[C@]34C[C@]35CC[C@]3(C)[C@@H]([C@@]6(C)CC[C@@H](C(C)(C)O)O6)[C@@H](O)C[C@@]3(C)[C@@H]5C[C@H](O[C@@H]3O[C@H](CO)[C@@H](O)[C@H](O)[C@H]3O)[C@H]4C2(C)C)OC[C@@H](O)[C@@H]1O` [AS2, astragaloside II], for which the “Uptake rate (proline)” value with HaCaT cells was 0.9770 ± 0.1119 pmol/mg/min. Moreover, in the experiment with HaCaT cells, the “Percentage (%) of control proline uptake” value is on record as 141.52%. In the experiment on HA synthase 2 (HAS2), this compound yielded an HAS-2 in cell of 2.73. In addition, the figures for the ProMMP-2/MMP2 in medium with MMP-2 (0.01 μM), in the experiment on MMP-2 (0.1 μM) and in the experiment on MMP-2 (1 μM) were 0.89, 0.89 and 0.67, respectively. In the experiment with MMP-1, the “MMP-1 Q-PCR” value is recorded as 0.25.
As to `CC(C)(O)[C@@H]1CC[C@](C)([C@H]2[C@@H](O)C[C@@]3(C)[C@@H]4C[C@H](O[C@@H]5O[C@H](CO)[C@@H](O)[C@H](O)[C@H]5O)[C@H]5C(C)(C)[C@@H](O[C@@H]6OC[C@@H](O)[C@H](O)[C@H]6O[C@@H]6O[C@H](CO)[C@@H](O)[C@H](O)[C@H]6O)CC[C@@]56C[C@@]46CC[C@]23C)O1` [AS6, astragaloside VI], the ProMMP-2/MMP2 in medium in the experiment with MMP-2 (0.01 μM) came out at 0.89; in the experiment with MMP-2 (0.1 μM) it was 0.67; in the experiment with MMP-2 (1 μM), 0.74.
Consider `CC(C)(O)[C@@H]1CC[C@](C)([C@H]2[C@@H](O)C[C@@]3(C)[C@@H]4C[C@H](O)[C@H]5C(C)(C)[C@@H](O[C@@H]6OC[C@@H](O)[C@H](O)[C@H]6O[C@@H]6O[C@H](CO)[C@@H](O)[C@H](O)[C@H]6O)CC[C@@]56C[C@@]46CC[C@]23C)O1` [AS3, astragaloside III], for which, in the experiment on HaCaT cells, the “Uptake rate (proline)” value was 0.7213 ± 0.0090 pmol/mg/min. The “Percentage (%) of control proline uptake” value in the experiment on HaCaT cells was found to be 104.48%. Moreover, the ProMMP-2/MMP2 in medium is on record as 0.76 in the experiment on MMP-2 (0.01 μM), 0.57 with MMP-2 (0.1 μM) and 0.81 in the experiment on MMP-2 (1 μM).
